Data as given in patent US9714247B2, “Multiple kinase pathway inhibitors” (Mannkind Corporation, priority 2012, dated 2017).
Where two headings read alike, the source gives them in different places.

Tests used:
Lyn = Lyn (Homo sapiens (Human), UniProt P07948); assay: biochemical
JNK1α1(h) = JNK1α1(h) (Homo sapiens (Human), UniProt P45983); assay: IC50 profiler radiometric kinase assay (Millipore); assay type: biochemical; conditions: CMGC
Method: (§1) In order to determine the relative enzyme selectivity of these amino naphthyridinones, representative amino naphthyridinones were evaluated for their ability to inhibit various kinases. Kinases were selected for a broad representation of the kinome (see FIG. 2: Kinases Evaluated). Compounds were evaluated using the IC50 profiler assay (Millipore), which measures substrate phosphorylation via γ-^33P-ATP transfer by the kinase of interest.
(§2) The assay directly measures the catalytic incorporation of phosphate onto kinase substrates. The kinase protein is incubated in buffer with substrate and γ-^33P-ATP. The reaction is initiated by the addition of the Mg-ATP mix. At the end of the reaction incubation time, the reaction is stopped by the addition of phosphoric acid solution and 10 μL of the reaction is spotted onto a filtermat, washed, dried and counted in scintillation fluid. […] In particular the amino naphthyridinones inhibited Abl and some but not all tested members of the Tec and Src families of tyrosine kinases, but not tyrosine-like kinases or the non-tyrosine kinases tested (See FIG. 2: Compound 1). […] Other known drugs with activity against BTK and SFKs, such as dasatinib and bosutinib, have activity against a broader array of tyrosine kinases as well as inhibiting non-tyrosine kinases (See FIG. 2: Dasatinib).

Hck(h) = Hck(h) (Homo sapiens (Human), UniProt P08631); assay: IC50 profiler radiometric kinase assay (Millipore); assay type: biochemical; conditions: TK
Method: as §1, §2

Lyn(h) = Lyn(h) (Homo sapiens (Human), UniProt P07948); assay: IC50 profiler radiometric kinase assay (Millipore); assay type: biochemical; conditions: TK
Method: as §1, §2

c-Kit(D816V)(h) = c-Kit(D816V)(h) (Homo sapiens (Human), UniProt P10721, D816V); assay: IC50 profiler radiometric kinase assay (Millipore); assay type: biochemical; conditions: TK
Method: as §1, §2

BTK(R28H)(h) = BTK(R28H)(h) (Homo sapiens (Human), UniProt Q06187, R28H); assay: IC50 profiler radiometric kinase assay (Millipore); assay type: biochemical; conditions: TK
Method: as §1, §2

CHK1(h) = CHK1(h) (Homo sapiens (Human), UniProt O14757); assay: IC50 profiler radiometric kinase assay (Millipore); assay type: biochemical; conditions: CAMK
Method: as §1, §2

CDK7/cyclinH/MAT1(h) = CDK7/cyclinH/MAT1(h) (Homo sapiens (Human), UniProt P50613); assay: IC50 profiler radiometric kinase assay (Millipore); assay type: biochemical; conditions: CMGC
Method: as §1, §2

EGFR(h) = EGFR(h) (Homo sapiens (Human), UniProt P00533); assay: IC50 profiler radiometric kinase assay (Millipore); assay type: biochemical; conditions: TK
Method: as §1, §2

Hck(h) activated = Hck(h) activated (Homo sapiens (Human), UniProt P08631); assay: IC50 profiler radiometric kinase assay (Millipore); assay type: biochemical; conditions: TK; activated = phosphorylated
Method: as §1, §2

Abl(h) = Abl(h) (Homo sapiens (Human), UniProt P00519); assay: IC50 profiler radiometric kinase assay (Millipore); assay type: biochemical; conditions: TK
Method: as §1, §2

Pim-1(h) = Pim-1(h) (Homo sapiens (Human), UniProt P11309); assay: IC50 profiler radiometric kinase assay (Millipore); assay type: biochemical; conditions: CAMK
Method: as §1, §2

IKKα(h) = IKKα(h) (Homo sapiens (Human), UniProt O15111); assay: IC50 profiler radiometric kinase assay (Millipore); assay type: biochemical; conditions: MISC
Method: as §1, §2

IKKβ(h) = IKKβ(h) (Homo sapiens (Human), UniProt O14920); assay: IC50 profiler radiometric kinase assay (Millipore); assay type: biochemical; conditions: MISC
Method: as §1, §2

MKK6(h) = MKK6(h) (Homo sapiens (Human), UniProt P52564); assay: IC50 profiler radiometric kinase assay (Millipore); assay type: biochemical; conditions: STE
Method: as §1, §2

JNK2α2(h) = JNK2α2(h) (Homo sapiens (Human), UniProt P45984); assay: IC50 profiler radiometric kinase assay (Millipore); assay type: biochemical; conditions: CMGC
Method: as §1, §2

c-RAF(h) = c-RAF(h) (Homo sapiens (Human), UniProt P04049, Y340D/Y341D); assay: IC50 profiler radiometric kinase assay (Millipore); assay type: biochemical; conditions: TKL
Method: as §1, §2

PDGFRβ(h) = PDGFRβ(h) (Homo sapiens (Human), UniProt P09619); assay: IC50 profiler radiometric kinase assay (Millipore); assay type: biochemical; conditions: TK
Method: as §1, §2

SAPK2b(h) = SAPK2b(h) (Homo sapiens (Human), UniProt Q15759); assay: IC50 profiler radiometric kinase assay (Millipore); assay type: biochemical; conditions: CMGC
Method: as §1, §2

Plk1(h) = Plk1(h) (Homo sapiens (Human), UniProt P53350); assay: IC50 profiler radiometric kinase assay (Millipore); assay type: biochemical; conditions: MISC
Method: as §1, §2

Bmx(h) = Bmx(h) (Homo sapiens (Human), UniProt P51813); assay: IC50 profiler radiometric kinase assay (Millipore); assay type: biochemical; conditions: TK
Method: as §1, §2

mTOR(h) = mTOR(h) (Homo sapiens (Human), UniProt P42345); assay: IC50 profiler radiometric kinase assay (Millipore); assay type: biochemical; conditions: Lipid/Atypical
Method: as §1, §2

Src(1-530)(h) = Src(1-530)(h) (Homo sapiens (Human), UniProt P12931); assay: IC50 profiler radiometric kinase assay (Millipore); assay type: biochemical; conditions: TK
Method: as §1, §2

ASK1(h) = ASK1(h) (Homo sapiens (Human), UniProt Q99683); assay: IC50 profiler radiometric kinase assay (Millipore); assay type: biochemical; conditions: STE
Method: as §1, §2

Flt3(h) = Flt3(h) (Homo sapiens (Human), UniProt P36888); assay: IC50 profiler radiometric kinase assay (Millipore); assay type: biochemical; conditions: TK
Method: as §1, §2

PAK2(h) = PAK2(h) (Homo sapiens (Human), UniProt Q13177); assay: IC50 profiler radiometric kinase assay (Millipore); assay type: biochemical; conditions: STE
Method: as §1, §2

SAPK2a(h) = SAPK2a(h) (Homo sapiens (Human), UniProt Q16539); assay: IC50 profiler radiometric kinase assay (Millipore); assay type: biochemical; conditions: CMGC
Method: as §1, §2

c-Kit(h) = c-Kit(h) (Homo sapiens (Human), UniProt P10721); assay: IC50 profiler radiometric kinase assay (Millipore); assay type: biochemical; conditions: TK
Method: as §1, §2

MAPKAP-K2(h) = MAPKAP-K2(h) (Homo sapiens (Human), UniProt P49137); assay: IC50 profiler radiometric kinase assay (Millipore); assay type: biochemical; conditions: CAMK
Method: as §1, §2

JAK2(h) = JAK2(h) (Homo sapiens (Human), UniProt O60674); assay: IC50 profiler radiometric kinase assay (Millipore); assay type: biochemical; conditions: TK
Method: as §1, §2

GSK3α(h) = GSK3α(h) (Homo sapiens (Human), UniProt P49840); assay: IC50 profiler radiometric kinase assay (Millipore); assay type: biochemical; conditions: CMGC
Method: as §1, §2

CaMKI(h) = CaMKI(h) (Homo sapiens (Human), UniProt Q14012); assay: IC50 profiler radiometric kinase assay (Millipore); assay type: biochemical; conditions: CAMK
DoHH2 = assay: CellTiter-Glo proliferation/viability assay; assay type: cell-based, human; conditions: Homo sapiens
Ramos = assay: CellTiter-Glo proliferation/viability assay; assay type: cell-based, human; conditions: Homo sapiens, Ramos, read-out: Ramos EC50
[1] = DOHH-2, 48 hrs, read-out: DoHH2 EC50

Chain of SAPK2b(h) (Q15759 whole entry): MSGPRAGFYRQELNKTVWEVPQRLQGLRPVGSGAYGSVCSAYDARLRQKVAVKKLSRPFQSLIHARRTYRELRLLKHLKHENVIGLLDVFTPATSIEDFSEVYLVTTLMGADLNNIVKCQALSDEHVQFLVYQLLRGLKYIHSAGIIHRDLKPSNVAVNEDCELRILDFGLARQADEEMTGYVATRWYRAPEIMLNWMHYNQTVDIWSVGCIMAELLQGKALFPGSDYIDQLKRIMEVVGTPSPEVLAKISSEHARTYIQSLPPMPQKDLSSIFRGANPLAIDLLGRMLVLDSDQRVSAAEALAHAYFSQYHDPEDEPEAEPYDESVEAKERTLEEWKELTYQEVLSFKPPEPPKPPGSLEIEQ
Chain of c-Kit(D816V)(h) (P10721 26-976 D816V): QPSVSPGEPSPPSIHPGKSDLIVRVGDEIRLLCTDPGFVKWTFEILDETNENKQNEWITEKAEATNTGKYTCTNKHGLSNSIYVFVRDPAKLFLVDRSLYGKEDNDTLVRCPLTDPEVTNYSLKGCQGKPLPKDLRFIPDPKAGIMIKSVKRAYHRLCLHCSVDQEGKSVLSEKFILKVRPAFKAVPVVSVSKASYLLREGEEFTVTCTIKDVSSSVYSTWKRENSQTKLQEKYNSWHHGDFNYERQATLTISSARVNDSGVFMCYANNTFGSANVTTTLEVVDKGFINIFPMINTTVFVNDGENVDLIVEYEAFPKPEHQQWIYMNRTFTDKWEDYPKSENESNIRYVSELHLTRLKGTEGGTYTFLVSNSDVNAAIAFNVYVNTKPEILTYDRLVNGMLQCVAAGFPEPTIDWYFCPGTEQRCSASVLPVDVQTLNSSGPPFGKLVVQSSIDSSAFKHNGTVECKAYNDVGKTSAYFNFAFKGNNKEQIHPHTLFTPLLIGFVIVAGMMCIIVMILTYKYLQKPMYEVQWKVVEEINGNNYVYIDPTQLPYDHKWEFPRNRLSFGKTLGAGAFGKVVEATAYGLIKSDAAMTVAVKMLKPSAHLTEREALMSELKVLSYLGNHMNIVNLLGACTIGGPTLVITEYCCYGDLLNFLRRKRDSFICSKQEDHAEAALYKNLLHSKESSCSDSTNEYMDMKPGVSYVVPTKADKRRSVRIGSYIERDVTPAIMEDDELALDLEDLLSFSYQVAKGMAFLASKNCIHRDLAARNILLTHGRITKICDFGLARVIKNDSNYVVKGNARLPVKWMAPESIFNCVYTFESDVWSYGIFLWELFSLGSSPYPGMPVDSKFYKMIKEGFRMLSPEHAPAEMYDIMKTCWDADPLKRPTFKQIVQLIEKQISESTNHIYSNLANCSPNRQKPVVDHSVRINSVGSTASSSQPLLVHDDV
Chain of Lyn (P07948 whole entry): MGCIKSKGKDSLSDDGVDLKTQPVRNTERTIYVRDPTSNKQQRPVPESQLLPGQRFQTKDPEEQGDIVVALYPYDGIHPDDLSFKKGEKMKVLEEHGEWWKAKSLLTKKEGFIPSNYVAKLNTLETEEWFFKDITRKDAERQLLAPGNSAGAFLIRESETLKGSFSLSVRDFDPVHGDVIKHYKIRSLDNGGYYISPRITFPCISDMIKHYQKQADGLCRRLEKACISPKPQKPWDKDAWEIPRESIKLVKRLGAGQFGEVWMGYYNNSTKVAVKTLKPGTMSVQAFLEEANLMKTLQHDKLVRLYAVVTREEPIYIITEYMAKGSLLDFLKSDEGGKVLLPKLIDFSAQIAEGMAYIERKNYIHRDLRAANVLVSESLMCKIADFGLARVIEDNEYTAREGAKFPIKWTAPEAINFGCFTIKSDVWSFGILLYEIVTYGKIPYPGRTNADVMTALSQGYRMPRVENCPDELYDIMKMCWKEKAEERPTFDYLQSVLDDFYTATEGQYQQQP
Chain of Lyn(h) (P07948 whole entry): as above
Chain of SAPK2a(h) (Q16539 whole entry): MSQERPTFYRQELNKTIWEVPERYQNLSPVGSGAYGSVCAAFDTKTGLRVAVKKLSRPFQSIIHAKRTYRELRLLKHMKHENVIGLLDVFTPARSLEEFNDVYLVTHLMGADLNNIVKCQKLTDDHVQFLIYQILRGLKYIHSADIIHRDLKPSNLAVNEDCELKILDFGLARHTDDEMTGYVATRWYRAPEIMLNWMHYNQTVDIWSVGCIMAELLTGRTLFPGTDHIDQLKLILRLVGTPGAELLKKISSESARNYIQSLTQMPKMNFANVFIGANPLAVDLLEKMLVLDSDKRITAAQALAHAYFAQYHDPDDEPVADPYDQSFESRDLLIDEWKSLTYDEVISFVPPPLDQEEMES
Chain of c-RAF(h) (P04049 306-648 Y340D/Y341D limits assumed): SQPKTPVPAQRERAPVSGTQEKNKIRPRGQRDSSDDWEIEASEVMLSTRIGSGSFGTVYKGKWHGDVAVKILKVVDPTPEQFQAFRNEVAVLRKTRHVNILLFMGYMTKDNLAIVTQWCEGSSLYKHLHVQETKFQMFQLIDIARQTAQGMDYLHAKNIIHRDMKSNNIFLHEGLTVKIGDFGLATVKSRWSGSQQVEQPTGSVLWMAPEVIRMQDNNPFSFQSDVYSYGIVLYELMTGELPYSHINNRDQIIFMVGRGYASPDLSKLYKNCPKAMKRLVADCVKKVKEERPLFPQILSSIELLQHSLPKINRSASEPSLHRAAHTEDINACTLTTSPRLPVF
Chain of JNK1α1(h) (P45983 other isoform, or with tags, fused parts or gaps): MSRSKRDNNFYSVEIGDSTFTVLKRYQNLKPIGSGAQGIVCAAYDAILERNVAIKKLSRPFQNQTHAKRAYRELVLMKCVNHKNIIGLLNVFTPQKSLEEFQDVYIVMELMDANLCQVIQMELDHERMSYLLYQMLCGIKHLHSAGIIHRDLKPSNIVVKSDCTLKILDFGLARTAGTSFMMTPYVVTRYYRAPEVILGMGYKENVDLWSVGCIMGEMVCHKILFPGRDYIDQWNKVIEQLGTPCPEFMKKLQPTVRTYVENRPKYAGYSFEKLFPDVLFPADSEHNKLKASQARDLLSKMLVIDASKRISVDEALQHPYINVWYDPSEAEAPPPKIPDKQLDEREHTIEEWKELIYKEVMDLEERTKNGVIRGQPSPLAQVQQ
Chain of Flt3(h) (P36888 27-993): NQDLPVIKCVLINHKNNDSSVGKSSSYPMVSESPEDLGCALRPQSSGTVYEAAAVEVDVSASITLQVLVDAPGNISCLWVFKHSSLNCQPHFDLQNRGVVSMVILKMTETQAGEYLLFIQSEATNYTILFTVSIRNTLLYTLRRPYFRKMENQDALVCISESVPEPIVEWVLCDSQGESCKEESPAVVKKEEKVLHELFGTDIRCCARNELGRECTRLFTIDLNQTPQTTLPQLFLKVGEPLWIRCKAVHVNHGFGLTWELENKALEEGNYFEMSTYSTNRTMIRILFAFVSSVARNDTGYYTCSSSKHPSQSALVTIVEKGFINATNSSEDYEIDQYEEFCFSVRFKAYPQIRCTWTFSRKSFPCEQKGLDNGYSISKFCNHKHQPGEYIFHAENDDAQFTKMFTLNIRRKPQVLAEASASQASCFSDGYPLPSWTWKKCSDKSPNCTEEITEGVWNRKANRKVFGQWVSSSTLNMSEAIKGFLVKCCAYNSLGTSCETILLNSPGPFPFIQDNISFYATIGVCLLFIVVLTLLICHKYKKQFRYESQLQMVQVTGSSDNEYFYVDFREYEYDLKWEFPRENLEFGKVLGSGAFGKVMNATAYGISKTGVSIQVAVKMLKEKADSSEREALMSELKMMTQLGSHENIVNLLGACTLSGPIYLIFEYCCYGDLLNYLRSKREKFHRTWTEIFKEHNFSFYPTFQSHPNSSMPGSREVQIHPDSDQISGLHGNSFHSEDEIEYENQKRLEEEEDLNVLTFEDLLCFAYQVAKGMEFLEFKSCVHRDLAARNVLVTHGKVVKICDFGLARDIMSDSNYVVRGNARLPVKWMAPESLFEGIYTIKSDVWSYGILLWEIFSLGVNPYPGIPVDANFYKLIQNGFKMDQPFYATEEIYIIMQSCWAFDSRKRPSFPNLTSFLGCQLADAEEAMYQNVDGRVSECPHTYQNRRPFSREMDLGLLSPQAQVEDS
Chain of CHK1(h) (O14757 whole entry): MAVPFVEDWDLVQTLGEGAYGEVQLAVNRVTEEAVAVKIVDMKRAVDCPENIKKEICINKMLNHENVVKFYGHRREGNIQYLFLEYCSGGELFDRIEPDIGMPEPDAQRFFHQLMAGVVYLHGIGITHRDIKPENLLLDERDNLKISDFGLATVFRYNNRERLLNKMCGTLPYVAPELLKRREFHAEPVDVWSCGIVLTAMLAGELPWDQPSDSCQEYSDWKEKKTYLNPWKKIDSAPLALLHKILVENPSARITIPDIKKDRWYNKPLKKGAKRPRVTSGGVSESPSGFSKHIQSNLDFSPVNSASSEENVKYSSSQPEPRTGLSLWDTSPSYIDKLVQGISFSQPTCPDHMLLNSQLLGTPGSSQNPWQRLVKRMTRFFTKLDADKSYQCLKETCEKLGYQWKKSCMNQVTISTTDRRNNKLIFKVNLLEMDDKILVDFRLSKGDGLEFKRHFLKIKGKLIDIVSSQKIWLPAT
Chain of Plk1(h) (P53350 whole entry): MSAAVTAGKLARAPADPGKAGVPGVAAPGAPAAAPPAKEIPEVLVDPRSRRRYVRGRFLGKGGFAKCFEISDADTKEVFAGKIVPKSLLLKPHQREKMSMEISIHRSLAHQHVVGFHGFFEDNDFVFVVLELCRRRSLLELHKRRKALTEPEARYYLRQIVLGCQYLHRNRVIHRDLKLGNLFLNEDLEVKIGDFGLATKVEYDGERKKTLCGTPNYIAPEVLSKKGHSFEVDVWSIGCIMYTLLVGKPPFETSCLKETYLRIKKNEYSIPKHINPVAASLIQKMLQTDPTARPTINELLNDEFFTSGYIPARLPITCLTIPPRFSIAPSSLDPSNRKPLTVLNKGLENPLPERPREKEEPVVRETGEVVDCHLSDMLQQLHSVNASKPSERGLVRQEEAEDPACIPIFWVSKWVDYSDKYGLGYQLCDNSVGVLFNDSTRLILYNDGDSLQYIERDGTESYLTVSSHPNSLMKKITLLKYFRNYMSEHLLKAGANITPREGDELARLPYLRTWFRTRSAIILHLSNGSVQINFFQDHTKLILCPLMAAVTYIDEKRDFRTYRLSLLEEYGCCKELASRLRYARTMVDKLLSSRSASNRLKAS

SMILES | IC50 (JNK1α1(h)) | IC50 (Hck(h)) | IC50 (Lyn(h)) | IC50 (c-Kit(D816V)(h)) | IC50 (BTK(R28H)(h)) | IC50 (CHK1(h)) | IC50 (CDK7/cyclinH/MAT1(h)) | IC50 (EGFR(h)) | IC50 (Hck(h) activated) | IC50 (Abl(h)) | IC50 (Pim-1(h)) | IC50 (IKKα(h)) | IC50 (IKKβ(h)) | IC50 (MKK6(h)) | IC50 (JNK2α2(h)) | IC50 (c-RAF(h)) | IC50 (PDGFRβ(h)) | IC50 (SAPK2b(h)) | IC50 (Plk1(h)) | IC50 (Bmx(h)) | further results
CCN(CC)CCOc1ccc(Nc2cc3c(cn2)cc(-c2ccccc2)c(=O)n3CC)nc1 [Compound 1, 7-[5-(2-Diethylamino-ethoxy)-pyridin-2-ylamino]-1-ethyl-3-phenyl-1H-[1, 6]naphthyridin-2-one] | > 1 µM | 0.01 to 0.1 µM | < 0.01 µM | 0.1 to 0.5 µM | 0.5 to 1 µM | > 1 µM | > 1 µM | 0.5 to 1 µM | < 0.01 µM | < 0.01 µM | > 1 µM | > 1 µM | > 1 µM | > 1 µM | > 1 µM | 0.1 to 0.5 µM | 0.1 to 0.5 µM | > 1 µM | > 1 µM | < 0.01 µM | IC50 (Lyn): 0.1 to 1 µM; IC50 (mTOR(h)): > 1 µM; IC50 (Src(1-530)(h)): < 0.01 µM; IC50 (ASK1(h)): > 1 µM; IC50 (Flt3(h)): > 1 µM; IC50 (PAK2(h)): > 1 µM; IC50 (SAPK2a(h)): 0.5 to 1 µM; IC50 (c-Kit(h)): 0.1 to 0.5 µM; IC50 (MAPKAP-K2(h)): > 1 µM; IC50 (JAK2(h)): > 1 µM; IC50 (GSK3α(h)): > 1 µM; IC50 (CaMKI(h)): > 1 µM; EC50 (DoHH2; DOHH-2, read-out: EC50 (Proliferation)): < 1 µM; EC50 (DoHH2; [1]): < 1 µM; EC50 (Ramos; 48 hrs): 1 to 10 µM
CCn1c(=O)c(-c2ccccc2)cc2cnc(Nc3ncc(CCN(C)C)s3)cc21 [Compound 2, 7-[5-(2-Dimethylamino-ethyl)-thiazol-2-ylamino]-1-ethyl-3-phenyl-1H-[1,6]naphthyridin-2-one] | > 1 µM | 0.5 to 1 µM | < 0.01 µM | > 1 µM | > 1 µM | > 1 µM | > 1 µM | > 1 µM | 0.1 to 0.5 µM | 0.01 to 0.1 µM | > 1 µM | > 1 µM | > 1 µM | > 1 µM | > 1 µM | 0.1 to 0.5 µM | 0.5 to 1 µM | > 1 µM | > 1 µM | 0.01 to 0.1 µM | IC50 (Lyn; Lyn IC50): 1 to 5 µM; IC50 (mTOR(h)): > 1 µM; IC50 (Src(1-530)(h)): 0.01 to 0.1 µM; IC50 (ASK1(h)): > 1 µM; IC50 (Flt3(h)): > 1 µM; IC50 (PAK2(h)): > 1 µM; IC50 (SAPK2a(h)): > 1 µM; IC50 (c-Kit(h)): 0.1 to 0.5 µM; IC50 (MAPKAP-K2(h)): > 1 µM; IC50 (JAK2(h)): > 1 µM; IC50 (GSK3α(h)): > 1 µM; IC50 (CaMKI(h)): > 1 µM; EC50 (DoHH2; [1]): 1 to 10 µM; EC50 (Ramos; 48 h): 1 to 10 µM
